Assay results from US20030171377A1, “Antidiabetic agents” (priority 2001, published 2003).
Where a name gives a salt, the structure may show the parent alone.

How the values were obtained:
[1] = Blood Glucose Measurement (Glucose Δ), Test D; assay type: in vivo, mice; parameters: key to Glucose Δ: change in blood glucose, mg/dL; details: for Glucose Δ: 4 hours post dose, 4 hour fasted animals, tail vein whole blood; for % BRL (in vivo, beside Glucose Δ): glucose change relative to BRL
Procedure: Test D—Blood Glucose Measurement (Glucose Δ) Glucose is obtained 4 hours post dose via tail vein stick (5 μl whole blood) in awake, 4 hour fasted animals. Blood is drawn by capillary action into a glucose cuvette and read in a HemoCue Glucose Analyzer (Ryan Diagnostics). Blood is diluted 1:2 with saline if glucose levels are greater than 400 mg/dl (meter high range) and results multiplied by two.

[2] = test system: CV-1 cells (FATP promoter luciferase reporter, 300 nM BRL); assay: ANTCV1 Antagonist Transcription Assay, Test B; assay type: cell-based, African green monkey; details: Chlorocebus sabaeus, 25 μM test compound with 300 nM BRL, 48 hrs, % BRL inhibition, read-out: ANTCV1 INHIB @ 25 μM
3T3-L1 preadipocytes = assay: 3T3-L1 Adipocyte Differentiation Assay (ADPDIFF), Test A; assay type: cell-based; details: BODIPY lipid fluorescence, reported as % of BRL 49653 at 5 μM
Procedure: Cells are replenished with FBS containing media on day 5 of post-drug treatment and incubated for additional 4-6 days. Cells are stained with BODIPY a fluorescent lipophilic stain to quantitate the lipid content of the cells. The assay is optimized for a 96-well plate format. Approximately after 10 days of post-drug treatment, cells are fixed in 3% formalin solution for 15 min followed by staining with BODIPY (80 μg/ml) for 20 min at room temperature. The plate is then put through the CYTOFLUOR instrument to measure the fluorescence of BODIPY (excitation=485/20; emission=530/25).

[3] = test system: endogenous nuclear receptors in CV-1 cells; assay: CV-1 Native Receptors Transcription Assay (MKNRCV1), Test C; assay type: cell-based, African green monkey; details: for MKNRCV1 % BRL @ 25 μM: percent activity of BRL 49653; for EC50: Chlorocebus sabaeus, CV-1 cells, 48 hours, unit inferred

Row | SMILES | Glucose Δ [1] | % BRL (in vivo, beside Glucose Δ) [1] [% BRL] | inhibition at 25 µM [2] [%] | ADPDIFF % BRL @ 5 μM (3T3-L1 preadipocytes) [% BRL] | MKNRCV1 % BRL @ 25 μM [3] [% BRL] | EC50 [3] [nM] | melting point [°C]
1 | Cc1oc(-c2ccccc2)nc1CCOc1ccc(CC(C(=O)O)c2ccc(C(F)(F)F)cc2)cc1 (stereo not drawn) | 246.8 | −180.4 | -49 | 107 | 78 | 200 | 
2 | Cc1oc(-c2ccccc2)nc1CCOc1ccc(CC(C(=O)O)c2nc(-c3ccccc3)oc2C)cc1 (stereo not drawn) [Example 79, 2-(5-Methyl-2-phenyl-oxazol-4-yl)-3-{4-[2-(5-methyl-2-phenyl-oxazol-4-yl)-ethoxy]-phenyl}-propionic acid] |  |  |  |  |  |  | 120
3 | Cc1oc(-c2ccccc2)nc1CCN(Cc1ccccc1)Cc1ccc(C[C@@H](C(=O)O)n2cccc2)cc1 (as salt: salt) |  |  |  |  |  |  | 110 to 113
4 | CN(CCOc1ccc(CC(C(=O)O)c2ccccc2)cc1)c1nc2ccccc2o1.Cl (stereo not drawn) | 172.0 | −52.0 | -45 | 109 | 91 | 1000 | 
5 | Cc1oc(-c2ccccc2)nc1CCOc1ccc(CC(C(=O)O)n2cccc2)cc1 (stereo not drawn) | −196.0 | 109.4 |  | 67 | 86 |  | 
6 | O=C(O)[C@H](Cc1ccc(OCCSc2nc3ccccc3s2)cc1)n1cccc1 | 155.0 | −66.5 | -102 | 97 | 102 | 700 | 
7 | Cc1oc(-c2ccccc2)nc1CCOc1ccc(CC(C(=O)O)c2ccccc2)cc1 (stereo not drawn) | 49.2 | −35.5 | -48 | 94 | 109 | 300 | 
8 | Cc1oc(-c2ccccc2)nc1CCOc1ccc(CC(C(=O)O)c2cccnc2)cc1.Cl (stereo not drawn) | −72.5 | 31.1 | -112 | 132 | 58 | 400 | 
9 | Cc1oc(-c2ccccc2)nc1CCOc1ccc(CC(C(=O)O)n2ccc(C(=O)c3ccccc3)c2)cc1 (stereo not drawn) | −84.4 | 60.8 | -20 | 102 | 91 | 2200 | 
10 | COC(=O)[C@H](Cc1ccc(C#CCc2nc(-c3ccccc3)oc2C)cc1)n1cccc1 |  |  | -114 | 90 | 123 | 100 | 
11 | Cc1oc(-c2ccccc2)nc1CCOc1ccc(CC(C)(C(=O)O)n2cccc2)cc1 (stereo not drawn) |  |  | -80.3 | 117 | 87 | 2000 | 
12 | Cc1oc(-c2ccccc2)nc1CCOc1ccc(CC(C)(C(=O)O)c2ccccc2)cc1 (stereo not drawn) [drawing 218] |  |  | 65 | 99 | 44 | 13000 | 
13 | COC(=O)[C@H](Cc1ccc(C#CCN(C)c2ccccn2)cc1)n1cccc1 |  |  | 71 | 29 | 38 | 5600 | 
14 | O=C(O)[C@H](Cc1ccc(CCCN2CCC(c3ccccc3)CC2)cc1)n1cccc1 [drawing 293] |  |  | 50 | 38 | 22 |  | 
15 | Cc1oc(-c2ccccc2)nc1CCOc1ccc(C[C@@H](C(=O)O)n2ccc(-c3ccccc3)c2)cc1 [drawing 241] | −194.0 | 83.3 | 29 | 125 | 54 | 900 | 
16 | CN(CC#Cc1ccc(C[C@@H](C(=O)O)n2cccc2)cc1)c1ccccc1 | 182.8 | −55.3 | -31 | 83 | 92 | 2900 | 
17 | O=C(O)[C@H](Cc1ccc(OCCc2ccccc2C(F)(F)F)cc1)n1cccc1 |  |  | -27 | 112 | 80 | 400 | 
18 | Cc1oc(-c2ccccc2)nc1CCOc1ccc(CC(C(=O)O)n2ccc(C(=O)C(C)C)c2)cc1 (stereo not drawn) |  |  | -10 | 120 | 70 | 23600 | 

Row | SMILES | Glucose Δ [1] | % BRL (in vivo, beside Glucose Δ) [1] [% BRL] | inhibition at 25 µM [2] [%] | ADPDIFF % BRL @ 5 μM (3T3-L1 preadipocytes) [% BRL] | MKNRCV1 % BRL @ 25 μM [3] [% BRL] | EC50 [3] [nM] | melting point [°C]
19 | Cc1oc(-c2ccccc2)nc1CCCc1ccc(C[C@@H](C(=O)O)n2cccc2)cc1 | −166.6 | 121.8 |  | 62 | 69 |  | 
20 | Cc1oc(-c2ccccc2)nc1CCOc1ccc(CC(C(=O)O)n2cccc2C(=O)c2ccccc2)cc1 (stereo not drawn) | 108.6 | −50.3 |  | 33 | 46 | 12900 | 
21 | CN(CCOc1ccc(CC(C(=O)O)n2ccc(C(=O)C3CCCCC3)c2)cc1)c1nc2ccccc2o1 (stereo not drawn) |  |  | 4 | 112 | 65 | 11100 | 
22 | O=C(O)[C@H](Cc1ccc(OCCCc2ccncc2)cc1)n1cccc1 |  |  | 3 | 3 | 44 |  | 
23 | CN(CCCc1ccc(C[C@@H](C(=O)O)n2cccc2)cc1)c1ccccc1 | 63.0 | −27.0 |  | 61 | 68 |  | 
24 | CC(=O)c1cccn1[C@@H](Cc1ccc(OCCc2nc(-c3ccccc3)oc2C)cc1)C(=O)O [drawing 230] | 12.4 | −5.1 | 20 | 89 | 60 | 3600 | 
25 | Cc1oc(-c2ccccc2)nc1CCOc1ccc(C[C@@H](C(=O)O)n2cccc2C(=O)C(F)(F)F)cc1 [drawing 233] | −157.2 | 113.3 | -1 | 105 | 75 | 1700 | 
26 | CC(=O)c1c(C(C)=O)c(C)n([C@@H](Cc2ccc(OCCc3nc(-c4ccccc4)oc3C)cc2)C(=O)O)c1C |  |  | 3 | 0 | 24 |  | 
27 | Cc1oc(-c2ccccc2)nc1CCOc1ccc(C[C@@H](C(=O)O)c2ccccc2)cc1 [drawing 252] | −58.8 | 17.8 | -104 | 95 | 106 | 150 | 
28 | Cc1oc(-c2ccccc2)nc1CCOc1ccc(C[C@@H](C(=O)O)n2c(C)ccc2C)cc1 |  |  | 80 | 26 | 11 |  | 
29 | CN(CCOc1ccc(CC(C(=O)O)n2ccc(-c3ccccc3)c2)cc1)c1nc2ccccc2o1 (stereo not drawn) |  |  | -41 | 113 | 59 |  | 
30 | CCc1nnc([C@H](Cc2ccc(OCCc3nc(-c4ccccc4)oc3C)cc2)n2cccc2)o1 | 46.5 | −20.0 | 53.8 | 88 | 12 |  | 
31 | O=C(O)[C@H](Cc1ccc(/C=C/CN2CCC(c3ccccc3)CC2)cc1)n1cccc1 [drawing 292] |  |  | 44 | 183 | 40 |  | 
32 | Cc1oc(-c2ccccc2)nc1CC#Cc1ccc(C[C@@H](C(=O)O)n2cccc2)cc1 | 62.0 | −45.3 |  | 100 | 94 |  | 
33 | CC(=O)c1cc(C)n([C@@H](Cc2ccc(OCCc3oc(-c4ccccc4)nc3C)cc2)C(=O)O)c1C |  |  | -15 | 0 | 27 |  | 
34 | COC(=O)[C@H](Cc1ccc(CCCN(C)c2ccccc2)cc1)n1cccc1 |  |  | -2 | 73 | 71 |  | 
35 | Cc1oc(-c2ccccc2)nc1CCOc1ccc(C[C@@H](C(=O)O)n2cccc2Cl)cc1 | 54.8 | −40.1 | -17.5 | 86 | 70 | 10 | 
36 | Cc1oc(-c2ccccc2)nc1CCOc1ccc(CC(C(=O)O)n2ccc(-c3ccccc3)c2)cc1 (stereo not drawn) |  |  | 29 | 125 | 54 | 900 | 
